From patent publication US20060004207A1, “Preparation of new pharmaceutically suitable salt of losartan and forms thereof with new purification and isolation methods” (priority 2003, published 2006)
Like-named read-outs stand apart in the source and are kept apart here. One block for each compound: values may come before it.

Columns and labels:
[1] = Solubility of crystalline forms of losartan potassium
[2] = Rate of dissolution of the substance, 75 mg in 50 ml 0.1 M HCl; type: physicochemical
[3] = for Loss of weight: ~10 mBar
Method: The sample was exposed to temperatures between 60° C. and 80° C. and negative pressure ˜10 mBar.

[4] = Dynamic vapour sorption (DVS); type: physicochemical
Method: Measurements were performed on instrument DVS—The Sorption Solution, Surface Measurement Systems Ltd. UK.
The principle of measurement is as follows: The sample measured is placed on one side of a very precise scale, a reference non-hydroscopic sample having been placed on the other side. The scale is located in an isolated chamber in which the relative humidity can be set. The hydroscopic sample being measured binds moisture from the environment, and an increase of mass is detected.
The ordinate axis represents the change of mass, abscise representing the humidity.

[5] = Stability test, amorphous versus form with bound water, 4 days in air at 60/80° C., dry or moist; type: physicochemical; conditions: for Physical form when exposed to moisture: 4 days
Method: For evaluation and comparison, respectively, of the stability, four tests were conducted.

[6] = 10 g exposed to heat while dried
Method: Temperature stability of the sample of polymorph Form Y was tested by exposing 10 g polymorph Form Y potassium salt of -n-butyl-4-chloro-5-hydroxymethyl-1-[[2′-(1H-tetrazol-5-yl)[1,1′-biphenyl]-4-yl]methyl]-1H-imidazole to heat while dried.

solubility ([1]; 0.1 M HCl, simulated gastric fluid): 1.52 mg/mL
solubility ([1]; water): 630 mg/mL
RATE OF DISSOLUTION [2]: 16 min
Compound: CCCCc1nc(Cl)c(CO)n1Cc1ccc(-c2ccccc2-c2nn[nH]n2)cc1 [Form I, losartan potassium, reference compound]

Compound: CCCCc1nc(Cl)c(CO)n1Cc1ccc(-c2ccccc2-c2nnn[n-]2)cc1.[K+] [LST-K-1481, potassium salt of 2-n-butyl-4-chloro-5-hydroxymethyl-1-[[2′-(1H-tetrazol-5-yl)[1,1′-biphenyl]-4-yl]methyl]-1H-imidazole]
SOLUBILITY in 0.1 M HCl ([1]; in 0.1 M HCl): 1.74 mg/mL
RATE OF DISSOLUTION [2]: 14 min

Compound: CCCCc1nc(Cl)c(CO)n1Cc1ccc(-c2ccccc2-c2nnn[n-]2)cc1.[K+] [LST-K-1496/1, potassium salt of 2-n-butyl-4-chloro-5-hydroxymethyl-1-[[2′-(1H-tetrazol-5-yl)[1,1′-biphenyl]-4-yl]methyl]-1H-imidazole]
RATE OF DISSOLUTION [2]: 13 min

Compound: CCCCc1nc(Cl)c(CO)n1Cc1ccc(-c2ccccc2-c2nnn[n-]2)cc1.[K+] [LST-K-3279, potassium salt of 2-n-butyl-4-chloro-5-hydroxymethyl-1-[[2′-(1H-tetrazol-5-yl)[1,1′-biphenyl]-4-yl]methyl]-1H-imidazole]
Polymorphic form after storage ([3]; 45-day storage in a closed flask at room temperature): did not change its polymorphic forms
Loss of weight ([3]; 60° C.): 0.79%
Loss of weight ([3]; 80° C.): 0.90%
Crystalline structure after heat and negative pressure ([3]; between 60° C. and 80° C., negative pressure ~10 mBar): did not change under any of the conditions

RATE OF DISSOLUTION [2]: 8 min
Compound: CCCCc1nc(Cl)c(CO)n1Cc1ccc(-c2ccccc2-c2nn[nH]n2)cc1 [Milled sample of Form I, losartan potassium, reference compound]

Water content at repeated sorption, at which point the amorphous sample crystallizes ([4]; at 60% relative humidity): approximately 13%
Weight increase ([4]; at 70-80% relative humidity): 20-26%
Absorption of water (increase of mass) ([4]; at 80% relative humidity, first sorption): 25%
Compound: CCCCc1nc(Cl)c(CO)n1Cc1ccc(-c2ccccc2-c2nn[nH]n2)cc1 [amorphous losartan potassium, losartan potassium]
Hygroscopicity (comparison) [5]: essentially more hygroscopic than the form with bound water of losartan potassium
Physical form when exposed to moisture [5]: merged into a glassy mass and then white crystals of form with bound water were formed

Compound: CCCCc1nc(Cl)c(CO)n1Cc1ccc(-c2ccccc2-c2nnn[n-]2)cc1.[K+] [crystalline form with bound water, losartan potassium]
Content of water in sample after crystallization ([4]; after crystallization at 80% relative humidity): approximately 13%
Relative humidity at which bound water is lost and the sample transforms into amorphous form ([4]; decreasing relative humidity): below 20%
Solubility (comparison in words) ([1]; in water): less soluble than known Form I, or amorphous losartan potassium
Stability to temperature and moisture ([5]; 4 days in air, 60° C. or 80° C., dry atmosphere or moisture): at least as stable as amorphous
Physical form when exposed to moisture [5]: maintained the powdered form

Compound: CCCCc1nc(Cl)c(CO)n1Cc1ccc(-c2ccccc2-c2nnn[n-]2)cc1.[K+] [polymorph Form Y, potassium salt of 2-n-butyl-4-chloro-5-hydroxymethyl-1-[[2′-(1H-tetrazol-5-yl)[1.1′-biphenyl]-4-yl]methyl]-1H-imidazole]
Polymorph form after exposure to heat while dried [6]: Polymorph Form X was obtained
